From article PMC6131205, “Controlling the regioselectivity and stereospecificity of FAD-dependent polyamine oxidases with the use of amine-attached guide molecules as conformational modulators” (Bioscience Reports, 2018)

Columns and labels:
[1] = system: amine oxidases in rat liver homogenates; test: Degradation in rat liver supernatant; format: in vitro ADME; details: 20 μM MDL 72527, 5 min preincubation
Experimental: A Wistar rat liver was frozen in liquid nitrogen. The liver was homogenized (1+3 w/v) with Teflon potter in buffer containing 25 mM Tris/HCl pH 7.4, 1 mM DTT and 0.1 mM EDTA. Resulting homogenate was centrifuged at 12000×g for 30 min at +4°C. Supernatant was divided into two portions and treated as follows: (A) incubated for 5 min at +37°C in a water bath, (B) supplemented with 20 μM MDL 72527 and incubated for 5 min at +37°C in a water bath to inactivate APAO and SMOX. A 20-μl aliquot of supernatant A or B was added in 100 mM Glycine-NaOH pH 9.5, 5 mM DTT with or without 100 μM of studied drug in a total volume of 180 μl. After 10-min incubation at +37°C, 20 μl of 50% sulphosalicylic acid (SSA) containing 100 μM diaminoheptane (DAH) was added to the reaction mixture. The samples were assayed with HPLC as described in [30].

[2] = target: SMOX (Homo sapiens, UniProt Q9NWM0); set-up: made in house; method as in PMID 17901051, PMID 16354669; details: cited from earlier work
[3] = target: Fms1 (Saccharomyces cerevisiae, UniProt P50264); test: Substrate kinetics with recombinant Fms1 (HPLC of reaction products);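 also: recombinant polyamine oxidases incubated with substrate, product amines (putrescine, 1,3-diaminopropane or butane-1,3-diamine) quantified by HPLC after post-column o-phthalaldehyde derivatization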
[4] = target: T1, human recombinant APAO (Homo sapiens, UniProt Q6QHF9); details: cited from earlier work
T1 construct: made in house
T1 sequence (Q6QHF9 whole entry): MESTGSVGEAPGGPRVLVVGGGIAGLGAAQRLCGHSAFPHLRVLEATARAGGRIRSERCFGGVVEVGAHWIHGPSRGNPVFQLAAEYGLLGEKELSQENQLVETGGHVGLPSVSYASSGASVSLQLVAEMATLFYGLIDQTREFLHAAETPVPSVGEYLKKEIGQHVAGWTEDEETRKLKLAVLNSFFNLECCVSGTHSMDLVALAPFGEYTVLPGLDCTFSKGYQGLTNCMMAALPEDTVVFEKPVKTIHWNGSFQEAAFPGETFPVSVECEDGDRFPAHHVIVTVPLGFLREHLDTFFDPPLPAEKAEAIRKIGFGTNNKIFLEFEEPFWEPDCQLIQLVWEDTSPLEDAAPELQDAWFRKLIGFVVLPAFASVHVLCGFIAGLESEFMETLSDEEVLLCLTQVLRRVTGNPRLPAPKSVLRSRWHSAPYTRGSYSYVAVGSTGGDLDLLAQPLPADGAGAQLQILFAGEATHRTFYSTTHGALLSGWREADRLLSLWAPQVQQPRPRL

Chain of SMOX (Q9NWM0 whole entry): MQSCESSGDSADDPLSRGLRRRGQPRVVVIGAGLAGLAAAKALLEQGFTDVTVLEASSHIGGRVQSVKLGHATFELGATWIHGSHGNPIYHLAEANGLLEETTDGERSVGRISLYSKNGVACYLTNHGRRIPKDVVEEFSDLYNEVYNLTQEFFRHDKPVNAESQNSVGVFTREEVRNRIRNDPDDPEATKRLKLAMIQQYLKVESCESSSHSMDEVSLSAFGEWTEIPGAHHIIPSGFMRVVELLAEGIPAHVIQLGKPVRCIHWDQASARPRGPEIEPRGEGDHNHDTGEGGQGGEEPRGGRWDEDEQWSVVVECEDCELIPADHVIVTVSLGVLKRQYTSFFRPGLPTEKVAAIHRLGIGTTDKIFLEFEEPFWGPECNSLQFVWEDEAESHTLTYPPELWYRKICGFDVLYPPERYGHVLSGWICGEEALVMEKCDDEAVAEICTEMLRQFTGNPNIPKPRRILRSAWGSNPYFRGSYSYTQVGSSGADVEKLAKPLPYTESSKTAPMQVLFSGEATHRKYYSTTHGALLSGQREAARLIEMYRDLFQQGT
Chain of Fms1 (P50264 whole entry): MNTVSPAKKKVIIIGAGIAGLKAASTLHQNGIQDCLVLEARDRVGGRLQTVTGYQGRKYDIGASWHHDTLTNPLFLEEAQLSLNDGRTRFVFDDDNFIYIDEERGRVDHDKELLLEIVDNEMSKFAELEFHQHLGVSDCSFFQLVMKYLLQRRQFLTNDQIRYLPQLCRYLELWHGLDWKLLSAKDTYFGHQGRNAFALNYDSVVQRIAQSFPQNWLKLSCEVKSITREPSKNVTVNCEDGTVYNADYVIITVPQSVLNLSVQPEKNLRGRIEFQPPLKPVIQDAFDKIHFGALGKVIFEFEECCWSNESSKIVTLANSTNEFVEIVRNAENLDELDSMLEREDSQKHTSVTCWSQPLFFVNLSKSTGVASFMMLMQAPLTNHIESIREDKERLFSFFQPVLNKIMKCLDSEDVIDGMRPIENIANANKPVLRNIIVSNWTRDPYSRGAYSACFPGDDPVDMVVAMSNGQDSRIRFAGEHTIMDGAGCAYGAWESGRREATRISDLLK

SMILES	inhibition of analogue degradation in rat liver supernatant [1]	Specificity constant ratio SS/RR ([2]; (S,S)-Me2Spm vs (R,R)-Me2Spm)	Specificity constant ratio SS/Spm ([2]; (S,S)-Me2Spm vs Spm)	Specificity constant ratio SS/RR ([3]; Fms1, (S,S)-Me2Spm vs (R,R)-Me2Spm)	Specificity constant ratio SS/Spm ([3]; Fms1, (S,S)-Me2Spm vs Spm)	Specificity constant ratio SS/RR ([4]; (S,S)-Me2Spm vs (R,R)-Me2Spm)	Specificity constant ratio SS/Spm ([4]; (S,S)-Me2Spm vs Spm)
C=C=CCNCCCCNCC=C=C [MDL72527]	Complete inhibition	–	–	–	–	–	–
CC(N)CCNCCCCNCCC(C)N [(S,S)-Me2Spm, 2,13-diamino-5,10-diazatetradecane]	–	454	2.1	3.9	0.07	28	7.1
